From patent US9447157B2, “Nitration shielding peptides and methods of use thereof” (Augusta University Research Institute, Inc., priority 2013, dated 2016)

Legend:
Format in all cases: cell-based, lamb
Conditions in all cases: SIN-1 500 μM 48 h
[1] = system: Pulmonary artery smooth muscle cells (PASMC); assay: PASMC phenotype markers (Western blot, immunocytochemistry)
Experimental: Cells were prepared as previously described (Sud, N., et al., American Journal of Physiology 293, L1444-1453 (2007); Sharma, S., et al., American Journal of Physiology 294, L46-56 (2008)). Briefly, the cellular protein extracts were prepared by homogenizing the cells in lysis buffer (50 mM Tris-HCl, pH 7.6, 0.5% Triton X-100, and 20% glycerol) containing Halt protease inhibitor cocktail (Pierce, Rockford, Ill.). The extracts were then clarified by centrifugation (20,000 g for 20 min at 4° C.). The supernatant fractions were assayed for protein concentration using the Bio-Rad DC Protein Assay (Bio-Rad Laboratories, Hercules, Calif.) and used for Western blot analysis. Similarly, peripheral lung tissue from the control lambs and the lambs with pulmonary hypertension secondary to increased pulmonary blood flow (shunt) was prepared as described earlier (Aggarwal, S., et al., Journal of Cellular Physiology (2011)). Cell extracts ([…]) were resolved using 4-20% Tris-SDS-Hepes PAGE, electrophoretically transferred to Immuno-Blot™ PVDF membrane (Bio-Rad Laboratories, Hercules, Calif.), and then blocked with 5% nonfat dry milk in Tris buffered saline. The membranes were then probed with antibodies against PKG-1α (1:500 dilution), anti-nitrotyrosine 247-PKG-1α (1:500), Calponin-1 (1:500 dilution), Vimentin (1:500 dilution), or MYH (1:500 dilution). Reactive bands were visualized using chemi-luminescence (Pierce Laboratories, Rockford, Ill.) on a Kodak 440CF image station. The band intensity was quantified using Kodak 1D image processing software. The protein expression was normalized by re-probing with anti β-actin (1:2000).
Semi-confluent PASMC grown on a coverslip in a 6-well plate were transfected with a mammalian expression plasmid containing either a wild-type (WT)- or Y247F-PKG-1α cDNA. After 20 h, the cells were serum starved (1% FBS) for 4 h then exposed or not to SIN-1 (500 μM) for 48 h. The cells were washed with PBS, methanol fixed (5 min), and permeabilized in 0.1% PBS-Tween (20 min). […] The cells were rinsed 3× with PBS, and the coverslips were mounted on the slides with ProLong Gold Antifade and analyzed with the use of a Nikon Eclipse TE 300 inverted fluorescent microscope with a 60× oil objective and a Hamamatsu digital camera.
To assess the effect of nitration on pulmonary arterial smooth muscle cell (PASMC) phenotype, PASMC were transiently transfected with expression plasmids containing WT-PKG-1α, Y247F-PKG-1α, or PDEST40 (as a control) for 20 h. Cells were then exposed or not to SIN-1 (500 μM, 48 h) and the effect on synthetic and contractile markers determined. The levels of myosin heavy chain (MYH, FIG. 18A), Calponin-1 (FIG. 18B), and Vimentin (FIG. 18C) were determined. […]

[2] = system: Pulmonary artery smooth muscle cells (PASMC); assay: PASMC cell growth (cell count)
Experimental: Pulmonary artery smooth muscle cells (PASMC) were grown on a 10 cm dish to 75% confluence, transfected with WT-PKG-1α or Y247F-PKG-1α cDNA using a Qiagen transfection kit, according to manufacturer's instructions, and incubated at 37° C. for 20 h. […] The cells were then trypsinized, seeded onto a 6-well plate at a density of 2.5×10^4 cells per well, and grown for an additional 4 h in serum-free DMEM growth medium containing 1% FBS and antibiotics. The cells were then treated with or without SIN-1 (500 μM) and allowed to grow at 37° C. in the incubator for an additional 48 h. The cellular proliferation was evaluated by counting the cells with a hemacytometer (Cascade Biologicals™, Portland, Oreg.) after the trypsinization of the PASMC monolayers.

[3] = system: Pulmonary artery smooth muscle cells (PASMC); assay: PASMC cellular metabolism (alamarBlue assay)
Experimental: This was determined via the alamarBlue assay (AbD Serotec, Oxford, UK). The assay is based on the reducing ability of metabolically active cells to convert the active reagent, resazurin, into a fluorescent and colorimetric indicator, resorufin. When added to cell cultures, the oxidized, resazurin enters the cytosol and is converted to the reduced, resorufin in the mitochondria by accepting electrons from NADH, NADPH, FADH2, FMNH2, as well as from the cytochromes. The non-toxic and cell permeable nature of alamarBlue permits the long-term exposure of cells. PASMC were grown on a 10 cm dish to 75% confluence, transfected with WT-PKG-1α or Y247F-PKG-1α cDNA, and incubated at 37° C. for 20 h. The cells were trypsinized and seeded onto a 24-well plate at a density of 20,000 cells per well and grown for an additional 4 h in serum and phenol free DMEM growth medium containing 1% FBS and antibiotics. The cells were then treated with or without SIN-1 (500 μM, 48 h) in the presence of 10% well volume of alamarBlue dye. The color change of the dye was determined at an excitation wavelength of 560 nm and an emission wavelength of 590 nm in a Fluoroskan Ascent plate reader. […] Cellular metabolism was expressed as follows: […]

3-morpholinosydnonimine N-ethylcarbamide [SIN-1]
PCNA staining ([1]; WT-PKG-1α expressing PASMC): increased | SM-22α expression ([1]; WT-PKG-1α expressing PASMC): attenuated | Expression of contractile markers MYH and Calponin-1 ([1]; WT-PKG-1α transfected PASMC): decreased | Expression of proliferative marker Vimentin ([1]; WT-PKG-1α transfected PASMC): increased | Proliferation, WT-PKG-1α transfected PASMC [2]: stimulated | Metabolism, WT-PKG-1α transfected PASMC [3]: stimulated
